Patent US9447100B2, “Substituted pyrazolo[1,5-A] pyrimidines as calcium receptor modulating agents” (Takeda Pharmaceutical Company Limited, priority 2002, dated 2016)
Where a name gives a salt, the structure may show the parent alone.

melting point [°C]	SMILES
194 to 195	CCC(CC)(NC(=O)c1c(C)nn2c1N[C@@H](c1ccccc1)CC2(C)C)c1cc(C)n(-c2ccccc2)n1 (as salt: HCl) [Example 1062, (5R)-N-(1-ethyl-1-(5-methyl-1-phenyl-1H-pyrazol-3-yl)propyl)-2,7,7-trimethyl-5-phenyl-4,5,6,7-tetrahydropyrazolo[1,5-a]pyrimidine-3-carboxamide]
180 to 182	CCC(CC)(NC(=O)c1c(C)nn2c1N[C@@H](c1ccccc1)CC2(C)C)c1ccccc1F (as salt: HCl) [Example 1063, (5R)-N-(1-ethyl-1-(2-fluorophenyl)propyl)-2,7,7-trimethyl-5-phenyl-4,5,6,7-tetrahydropyrazolo[1,5-a]pyrimidine-3-carboxamide]
150 to 151	CCC(CC)(NC(=O)c1c(C)nn2c1N[C@@H](c1ccccc1)CC2(C)C)c1ccc(Cl)c(C)c1 (as salt: HCl) [Example 1068, (5R)-N-(1-(4-chloro-3-methylphenyl)-1-ethylpropyl)-2,7,7-trimethyl-5-phenyl-4,5,6,7-tetrahydropyrazolo[1,5-a]pyrimidine-3-carboxamide]
129 to 130	CCC(CC)(NC(=O)c1c(C)nn2c1N[C@@H](c1ccccc1)CC2(C)C)c1ccc(C)c(Cl)c1 (as salt: HCl) [Example 1069, (5R)-N-(1-(3-chloro-4-methylphenyl)-1-ethylpropyl)-2,7,7-trimethyl-5-phenyl-4,5,6,7-tetrahydropyrazolo[1,5-a]pyrimidine-3-carboxamide]
141 to 142	CCC(CC)(NC(=O)c1c(C)nn2c1N[C@@H](c1ccccc1)CC2(C)C)c1ccc(N(C)C)cc1 (as salt: HCl) [Example 1071, (5R)-N-(1-(4-(dimethylamino)phenyl)-1-ethylpropyl)-2,7,7-trimethyl-5-phenyl-4,5,6,7-tetrahydropyrazolo[1,5-a]pyrimidine-3-carboxamide]
185 to 186	CCCC(CC)(CC)NC(=O)c1cnn2c1N[C@@H](c1ccccc1)CC2(C)C (as salt: HCl) [Example 1072, (5R)-N-(1,1-diethylbutyl)-7,7-dimethyl-5-phenyl-4,5,6,7-tetrahydropyrazolo[1,5-a]pyrimidine-3-carboxamide]
179 to 180	CCC(CC)(NC(=O)c1c(C)nn2c1N[C@@H](c1ccccc1)CC2(C)C)c1ccc(I)cc1 (as salt: HCl) [Example 1073, (5R)-N-(1-ethyl-1-(4-iodophenyl)propyl)-2,7,7-trimethyl-5-phenyl-4,5,6,7-tetrahydropyrazolo[1,5-a]pyrimidine-3-carboxamide]
125 to 126	CCOC(=O)c1ccc(C(CC)(CC)NC(=O)c2c(C)nn3c2N[C@@H](c2ccccc2)CC3(C)C)cc1 (as salt: HCl) [Example 1074, (5R)-ethyl 4-(1-ethyl-1-(((2,7,7-trimethyl-5-phenyl-4,5,6,7-tetrahydropyrazolo[1,5-a]pyrimidin-3-yl)carbonyl)amino)propyl) benzoate]
168 to 169	CCC(CC)(NC(=O)c1c(C)nn2c1N[C@@H](c1ccccc1)CC2(C)C)c1ccc(CO)cc1 (as salt: HCl) [Example 1075, (5R)-N-(1-ethyl-1-(4-(hydroxymethyl)phenyl)propyl)-2,7,7-trimethyl-5-phenyl-4,5,6,7-tetrahydropyrazolo[1,5-a]pyrimidine-3-carboxamide]
159 to 160	CCC(CC)(NC(=O)c1cnn2c1N[C@@H](c1ccccc1)CC2(C)C)c1ccc(CO)cc1 (as salt: HCl) [Example 1077, (5R)-N-(1-ethyl-1-(4-(hydroxymethyl)phenyl)propyl)-7,7-dimethyl-5-phenyl-4,5,6,7-tetrahydropyrazolo[1,5-a]pyrimidine-3-carboxamide]
203 to 204	CCC(CC)(NC(=O)c1c(C)nn2c1N[C@H](c1ccccc1F)CC2(C)C)c1ccc(C)cc1 (as salt: HCl) [Example 1083, (5S)-N-(1-ethyl-1-(4-methylphenyl)propyl)-5-(2-fluorophenyl)-2,7,7-trimethyl-4,5,6,7-tetrahydropyrazolo[1,5-a]pyrimidine-3-carboxamide]
